Results taken from patent US4003936A, “2-Hydrocinnampyl-1,3-cyclopentanediones” (Zaidan Hojin Biseibutsu Kagaku Kenkyu Kai, priority 1970, dated 1977).
Values belong to the molecule of their own block, whether it stands above or below them.

Tests used:
tyrosine hydroxylase = target: T1, tyrosine hydroxylase (Bos taurus, UniProt P17289); assay: inhibition of tyrosine hydroxylase (method of J. Antibiot. 23, 514 (1970)); assay type: biochemical; parameters: inhibition: dose or concentration left out as unconfirmed; settings: for inhibition: at 200 meg. (figure after the slash in the cell); for inhibition / inhibition at 0.1 mg / inhibition at 0.05 mg: read-out: Inhibition of the product (1a) to tyrosine hydroxylase; for inhibition at 0.1 mg: at 100 meg. (figure after the slash in the cell); for inhibition at 0.05 mg: at 50 meg. (figure after the slash in the cell)
T1 sequence (P17289 1-491): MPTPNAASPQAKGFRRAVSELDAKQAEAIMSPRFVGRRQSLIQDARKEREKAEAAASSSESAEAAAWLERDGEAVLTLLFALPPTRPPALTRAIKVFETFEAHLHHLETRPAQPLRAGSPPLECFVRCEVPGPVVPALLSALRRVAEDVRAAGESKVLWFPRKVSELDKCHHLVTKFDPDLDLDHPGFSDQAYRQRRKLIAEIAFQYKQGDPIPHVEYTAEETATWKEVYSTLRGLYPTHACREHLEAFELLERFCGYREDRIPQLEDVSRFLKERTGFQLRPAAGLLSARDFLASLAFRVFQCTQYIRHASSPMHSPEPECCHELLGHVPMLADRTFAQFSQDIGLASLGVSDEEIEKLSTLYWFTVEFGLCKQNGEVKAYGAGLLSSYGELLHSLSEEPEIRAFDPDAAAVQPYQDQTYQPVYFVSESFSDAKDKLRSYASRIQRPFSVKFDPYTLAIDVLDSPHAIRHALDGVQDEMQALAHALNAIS
From the text: (§1) Pharmacological properties of the new compounds of the present invention are now described. The new compounds of the present invention have been examined for their biological activities, and their inhibition to tyrosine hydroxylase are summarised in Table 2 later. The details of the test methods used and the close relationship of the biological activities between in vitro and in vivo are well presented in some published literatures (for example, see "J. Antibiot." 23, 514 (1970) and "J. Am. Chem. Soc." 93, 1285 (1971)). For instance, 2-(2-hydroxyhydrocinnamoyl)-1,3-cyclopentanedione, typical one of the new compounds of the present invention, was tested by dissolving in distilled water (pH was adjusted to 2.5) and administering to mice. […] Effect of this compound on tyrosine hydroxylase was also tested by the method described in the "Journal of Antibiotics" 23, 514 (1970).
In these Examples, various derivatives of 2cinnamoyl-1,3-cyclopentanedione of the formula [IVa] as prepared in Examples 3 - 34 were converted into the corresponding derivatives of 2-hydrocinnamoyl-1,3-cyclopentanedione of the formula [Ia] by hydrogenating them in the same manner as in the catalytic hydrogenation step of Example 1 (3). Nature of R1 and R2 in the resulting hydrogenation products 2-hydrocinnamoyl-1,3-cyclopentanediones [Ia], their yields, melting point and elementary analysis data are summarised in Table 2 with reference to the amount and nature of the catalyst and solvent which were employed in the catalytic hydrogenation step. In Table 2, there are also shown the degrees of inhibition (%) of the produced derivatives of 2-hydrocinnamoyl-1,3-cyclopentanedione [Ia] to tyrosine hydroxylase to provide a measure of their biological properties, the inhibition degrees as shown being determined by the same method as that used to estimate the inhibition % of 2-(2-hydroxyhydrocinnamoyl)-1,3-cyclopentanedione as mentioned above.

rats [1] = assay: sedative effect after injection of a large dose, rats; assay type: in vivo
rats [2] = assay: blood pressure of rats on daily injection or oral administration; assay type: in vivo
Method: (§2) Hydroxylation of tyrosine is the rate-limiting step of norepinephrine biosynthesis. Therefore, inhibition of tyrosine hydroxylase results in inhibition of norepinephrine synthesis in vivo which results in lowering the blood pressure. […] The hypotensive effect can be seen more markedly, when it is given to genetically hypertensive rats which was developed by Prof. Okamoto, Midical School, University of Kyoto. When 6.25 mg/Kg. was intraperitoneally injected to a rat of 185 mm. blood pressure and another rat of 188 mm., then the blood pressure was lowered to […]. and 118-162 mm. respectively during 1-22 hours after the injection. When 125 mg/Kg. was intraperitoneally injected to a rat of 195 mm., the pressure was reduced to 155-166 mm. during 1-22 hours after the injection. […] It caused 20-30% reduction which continued for about 5 days after the last oral administration.

[3] = acute toxicity (LD50) in mice; settings: mouse, in vivo, dissolved in distilled water pH 2.5
From the text: as §1

[4] = system: genetically hypertensive rats; assay: hypotensive effect in genetically hypertensive rats; assay type: in vivo; settings: for blood pressure after injection: 1-22 hours after the injection
Method: as §2

mice = assay: sedative effect after injection of a large dose, mice; assay type: in vivo
hypertensive patients = assay: daily administration to hypertensive patients for 30 days; assay type: in vivo, human; settings: 300 mcg daily divided into three times
[5] = oral, daily 3.1, 6.25, 12.5, 25 mg/Kg for three days

- inhibition (tyrosine hydroxylase): 77.4%
SMILES: N#Cc1ccc(CCC(=O)C2C(=O)CCC2=O)cc1 [Example 57]

- inhibition (tyrosine hydroxylase): 62%
SMILES: O=C1CCC(=O)C1C(=O)CCc1ccc(F)cc1 [Example 45, 2-(4-Fluorohydrocinnamoyl)-1,3-cyclopentanedione]

- inhibition at 0.1 mg (tyrosine hydroxylase): 23%
SMILES: O=C1CCC(=O)C1C(=O)CCc1cccc(O)c1 [Example 39, 2-(3-hydroxyhydrocinnamoyl)-1,3-cyclopentanedione]

- inhibition to tyrosine hydroxylase (tyrosine hydroxylase; at 100 mcg/cc): 22.5%
SMILES: O=C1CCC(=O)C1C(=O)CCc1ccc2c(c1)OCO2 [Example 63, 2-(3,4-methylenedioxyhydrocinnamoyl)-1,3-cyclopentanedione]

- inhibition (tyrosine hydroxylase): 53%
SMILES: O=C1CCC(=O)C1C(=O)CCc1ccccc1F [Example 46]

- inhibition (tyrosine hydroxylase): 12.8%
SMILES: CCOC(=O)c1ccc(CCC(=O)C2C(=O)CCC2=O)cc1 [Example 55]

- inhibition (tyrosine hydroxylase): 36.8%
SMILES: CC(C)c1ccc(CCC(=O)C2C(=O)CCC2=O)cc1 [Example 54]

- inhibition to tyrosine hydroxylase (tyrosine hydroxylase; at 200 mcg/cc): about 10%
SMILES: COc1cc(CCC(=O)C2C(=O)CCC2=O)ccc1O [Example 61, 2-(4-Hydroxy-3-methoxyhydrocinnamoyl)-1,3-cyclopentanedione]

- inhibition to tyrosine hydroxylase (tyrosine hydroxylase; at 100 mcg/cc): 5%
SMILES: COc1cccc(CCC(=O)C2C(=O)CCC2=O)c1O [Example 65, 2-(2-hydroxy-3-methoxyhydrocinnamoyl)-1,3-cyclopentanedione]

- inhibition at 0.05 mg (tyrosine hydroxylase): 32%
SMILES: O=C1CCC(=O)C1C(=O)CCc1ccc(O)cc1 [Example 40, 2-(4-Hydroxyhydrocinnamoyl)-1,3-cyclopentanedione]

- inhibition (tyrosine hydroxylase): 30.5%
SMILES: O=C1CCC(=O)C1C(=O)CCc1cccc(C(F)(F)F)c1 [Example 59]

- inhibition to tyrosine hydroxylase (tyrosine hydroxylase; at 100 mcg/cc): 45%
SMILES: O=C1CCC(=O)C1C(=O)CCc1ccc(Cl)c(Cl)c1 [Example 62, 2-(3,4-dichlorohydrocinnamoyl)-1,3-cyclopentanedione]

SMILES: O=C1CCC(=O)C1C(=O)CCc1ccccc1O [Example 38, 2-(2-hydroxyhydrocinnamoyl)-1,3-cyclopentanedione]
- inhibition to tyrosine hydroxylase (tyrosine hydroxylase; at 12.5 mcg/cc): 30%
- inhibition to tyrosine hydroxylase (tyrosine hydroxylase; at 25 mcg/cc): 38%
- inhibition to tyrosine hydroxylase (tyrosine hydroxylase; at 50 mcg/cc): 44%
- inhibition at 0.1 mg (tyrosine hydroxylase): 52%
- relation with 2-amino-4-hydroxy-6,7-dimethyltetrahydropteridine (Lineweaver-Burk plot) (tyrosine hydroxylase; cofactor 2-amino-4-hydroxy-6,7-dimethyltetrahydropteridine): competitive
- relation with tyrosine (Lineweaver-Burk plot) (tyrosine hydroxylase; substrate tyrosine): uncompetitive
- sedative effect (rats [1]): did not cause sleeping and the sedative effect was not recognized
- effect on blood pressure (rats [2]): lowered the blood pressure
- LD50 ([3]; ip, intraperitoneal injection): 283 mg/kg
- LD50 ([3]; oral administration): 550 mg/kg
- blood pressure after injection ([4]; 6.25 mg/Kg intraperitoneally, rat of 185 mm. blood pressure): 25-155 mm.
- blood pressure after injection ([4]; 6.25 mg/Kg intraperitoneally, rat of 188 mm. blood pressure): 118-162 mm.
- blood pressure after injection ([4]; 125 mg/Kg intraperitoneally, rat of 195 mm. blood pressure): 155-166 mm.
- duration of the blood pressure reduction after the last oral administration [4, 5]: about 5 days
- reduction of blood pressure [4, 5]: 20-30%
- sedative effect (mice): did not cause sleeping and the sedative effect was not recognized
- hypotensive effect (hypertensive patients): showed hypotensive effect
- side effect (hypertensive patients): without any side effect

- inhibition at 0.1 mg (tyrosine hydroxylase): 42%
SMILES: O=C1CCC(=O)C1C(=O)CCc1ccc(Cl)cc1 [Example 43, 2-(4-chlorohydrocinnamoyl)-1,3-cyclopentanedione]

- inhibition at 0.1 mg (tyrosine hydroxylase): 60%
SMILES: O=C1CCC(=O)C1C(=O)CCc1ccccc1 [Example 35, 2-hydrocinnamoyl-1,3-cyclopentanedione]

- inhibition (tyrosine hydroxylase): 6.4%
SMILES: COc1cccc(CCC(=O)C2C(=O)CCC2=O)c1 [Example 51]

- inhibition at 0.1 mg (tyrosine hydroxylase): 10%
SMILES: O=C1CCC(=O)C1C(=O)CCc1ccccc1Cl [Example 42, 2-(2-chlorohydrocinnamoyl)-1,3-cyclopentanedione]

- inhibition to tyrosine hydroxylase (tyrosine hydroxylase; at 100 mcg/cc): 85%
SMILES: O=C1CCC(=O)C1C(=O)CCc1ccc(O)c(O)c1 [Example 66, 2-(3,4-dihydroxyhydrocinnamoyl)-1,3-cyclopentanedione]

- inhibition at 0.1 mg (tyrosine hydroxylase): 29%
SMILES: COc1ccc(CCC(=O)C2C(=O)CCC2=O)cc1 [Example 41, 2-(4-Methoxyhydrocinnamoyl)-1,3-cyclopentanedione]

- inhibition (tyrosine hydroxylase): 44%
SMILES: Cc1ccc(CCC(=O)C2C(=O)CCC2=O)cc1 [Example 49, 2-(4-methylhydrocinnamoyl)-1,3-cyclopentanedione]

- inhibition at 0.1 mg (tyrosine hydroxylase): 10%
SMILES: CC(=O)Oc1ccccc1CCC(=O)C1C(=O)CCC1=O [Example 60]

- inhibition (tyrosine hydroxylase): 50.7%
SMILES: O=C1CCC(=O)C1C(=O)CCc1cccc(Br)c1 [Example 53]

- inhibition at 0.1 mg (tyrosine hydroxylase): 36%
SMILES: O=C1CCC(=O)C1C(=O)CCc1cccc(F)c1 [Example 44]

- inhibition (tyrosine hydroxylase): 4.6%
SMILES: CCCOC(=O)c1ccc(CCC(=O)C2C(=O)CCC2=O)cc1 [Example 56]

- inhibition (tyrosine hydroxylase): 10.1%
SMILES: CN(C)c1ccc(CCC(=O)C2C(=O)CCC2=O)cc1 [Example 58]

- inhibition at 0.05 mg (tyrosine hydroxylase): 50%
SMILES: O=C1CCC(=O)C1C(=O)CCc1ccc(Br)cc1 [Example 48]

- inhibition (tyrosine hydroxylase): 15.6%
SMILES: CCOc1ccc(CCC(=O)C2C(=O)CCC2=O)cc1 [Example 52]

- inhibition (tyrosine hydroxylase): 7.6%
SMILES: COc1ccccc1CCC(=O)C1C(=O)CCC1=O [Example 47]

- inhibition to tyrosine hydroxylase (tyrosine hydroxylase; at 200 mcg/cc): 29.5%
SMILES: COc1ccc(CCC(=O)C2C(=O)CCC2=O)cc1O [Example 64, 2-(3-hydroxy-4-methoxyhydrocinnomoyl)-1,3-cyclopentanedione]

- inhibition (tyrosine hydroxylase): 41%
SMILES: COC(=O)c1ccc(CCC(=O)C2C(=O)CCC2=O)cc1 [Example 50, 2-(4-Methoxycarbonylhydrocinnamoyl)-1,3-cyclopentanedione]
